Consider two substances from patent US7541020B2, “Aminoalkyl glucosaminide phosphate compounds and their use as adjuvants and immunoeffectors” (priority 1997, dated 2009).

Test [1] deals with hepatitis B surface antigen (HBsAg). The test is described as follows: Serum anti-HBsAg antibody titers after intranasal HBsAg + AGP-AF (ELISA). In kind it is in vivo, BALB/c mice. The settings on record: for Anti HBsAg Titer^−1 IgG1 / Anti HBsAg Titer^−1 IgG2a: K = 10^3. Background: An ELISA detects its analyte on a solid surface through an enzyme-linked reagent.
Test [2] shares this test system. The test is described as follows: Vaginal wash anti-HBsAg antibody after intranasal HBsAg + AGP-AF. The settings on record: 10 days after the booster immunization; intranasal HBsAg + 10 μg AGP-AF. Type of test: in vivo, BALB/c mice. The text has this: Vaginal samples were collected 10 days after the booster immunization and assayed for anti-HBsAg antibody.
Test [3] deals with Hepatitis B surface antigen. As to the kind of experiment: Randomized controlled clinical study of AgB/RC-210-04 versus AgB: seroprotection, seroconversion, anti-HBsAg titers. In kind it is in vivo, human. Conditions: healthy adults; RC-210-04 added to AgB.
Test [4] deals with influenza A/HK/68. The settings on record: mouse, in vivo.
The subject of test [5] is hepatitis B surface antigen (HBsAg). As to the kind of experiment: Anti-HBsAg antibody titer with AGP-SE (ELISA plates coated with HBsAg or p72 peptide). The settings on record: sera day 28 post 2°, 25 μg AGP-SE.
For another test, the system named is tetanus toxoid. The settings on record: mouse, in vivo.
Test [6] deals with influenza A/HK/68. The settings on record: mouse, in vivo. The source holds these as a separate data set.
Setting [7] is: day 22 post 2°, HBsAg + 10 μg AGP-AF intranasally.
Setting [8] is: serum, day 21 post 3°, intranasal HBsAg + 10 μg AGP-AF.
The mark [9] stands for this setting: ELISA plates coated with p72 peptide.

Values joined by “and” are separate entries in the source; they are usually repeats but may differ in a detail not shown here. Equal values may be shown once.

“2-[(R)-3-Tetradecanoyloxytetradecanoylamino]ethyl 2-Deoxy-4-O-phosphono-3-O-[(R)-3-tetradecanoyoxytetradecanoyl]-2-[(R)-3-tetradecanoyoxytetradecanoylamino]-β-D-glucopyranoside Triethylammonium Salt [B19]”: in test [1] (setting [7]), the “Anti HBsAg Titer^−1 IgA” value is reported as 1,600, the “Anti HBsAg Titer^−1 IgG1” value stood at 500K and the “Anti HBsAg Titer^−1 IgG2a” value is given as 64K. In test [1] (setting [8]), the “Anti HBsAg Titer^−1 IgG1” value stood at 2000K, the “Anti HBsAg Titer^−1 IgG2a” value is given as 500K and the “Anti HBsAg Titer^−1 IgA” value is listed as 12,800. For the same substance, in test [2], the “Vaginal Wash Anti-HBsAg Titer^−1 IgA” value is 400 and the “Vaginal Wash Anti-HBsAg Titer^−1 IgG” value is less than 50. Besides, the “antibody responses to Hepatitis B surface antigen (in words)” value in test [3] was “faster and greater antibody responses”. For the same substance, in the test with influenza A/HK/68 [4], the “Percent Survival” value was found to be 50%, the “Titer−1 IgG1” value was found to be 100, the “Titer−1 IgG2a” value is 800 and the “Titer−1 IgG2b” value came to 6400. Besides, the “Titer−1 Total IgG” value in the test on influenza A/HK/68 [4] is given as 12,800. For the same substance, in test [5] (ELISA plates coated with HBsAg), the “Anti-HBsAg Titer^−1 HBsAg IgG1” value is listed as 1024K and the “Anti-HBsAg Titer^−1 HBsAg IgG2a” value stood at 1024K. Besides, in test [5] (setting [9]), the “Anti-HBsAg Titer^−1 p72-Peptide IgG1” value turned out to be 64K and the “Anti-HBsAg Titer^−1 p72-Peptide IgG2a” value was determined as 128K. Moreover, in the test on tetanus toxoid, the “Anti-Tetanus Toxoid Titer^−1 Fecal Extract IgA” value is 3200 and 6400; the “Anti-Tetanus Toxoid Titer^−1 Fecal Extract IgG” value is on record as 25; the “Anti-Tetanus Toxoid Titer^−1 Serum Pools IgG1” value is 2M and 4M; the “Anti-Tetanus Toxoid Titer^−1 Vaginal Wash IgA” value was 1600 and 3200. In the test with tetanus toxoid, the “Anti-Tetanus Toxoid Titer^−1 Vaginal Wash IgG” value was 200 and 400.
For “2-[(R)-3-Hexanoyloxytetradecanoylamino]ethyl2-Deoxy-4-O-phosphono-3-O-[(R)-3-hexanoyloxytetradecanoyl]-2-[(R)-3-hexanoyloxytetradecanoylamino]-α-D-glucopyranoside Triethylammonium Salt [B31]”, in the test with influenza A/HK/68 [6], the “Anti-influenza serum titers IgG” value came to 3200, the “Anti-influenza serum titers IgG1” value is listed as 1600, the “Anti-influenza serum titers IgG2a” value is recorded as 400 and the “Anti-influenza serum titers IgG2b” value is listed as 1600. Moreover, the Protection in the test with influenza A/HK/68 [6] was 70.
